In paper PMC7714403 (JCI Insight, 2020):
pIC50, pKd: −log10 of the molar value.

Assays:
CDK6 = CDK6 (Homo sapiens, UniProt Q00534); assay: KiNativ, OCI cells live cell; format: cell-based; conditions: 2 h, labeling site Lys2, peptide […]
TAK1 = TAK1 (Homo sapiens, UniProt O43318); assay: KiNativ, OCI cells live cell; format: cell-based; conditions: 2 h, labeling site Lys2, peptide […]
HPK1 = HPK1 (Homo sapiens, UniProt Q92918); assay: KiNativ, OCI cells live cell; format: cell-based; conditions: 2 h
FLT3 ITD = FLT3 ITD (Homo sapiens, UniProt P36888, ITD); assay: KdELECT binding assay
MASTL = biological target: T1, MASTL (Homo sapiens, UniProt Q96GX5); assay: KiNativ, OCI cells live cell; format: cell-based
T1 sequence (Q96GX5 1-879): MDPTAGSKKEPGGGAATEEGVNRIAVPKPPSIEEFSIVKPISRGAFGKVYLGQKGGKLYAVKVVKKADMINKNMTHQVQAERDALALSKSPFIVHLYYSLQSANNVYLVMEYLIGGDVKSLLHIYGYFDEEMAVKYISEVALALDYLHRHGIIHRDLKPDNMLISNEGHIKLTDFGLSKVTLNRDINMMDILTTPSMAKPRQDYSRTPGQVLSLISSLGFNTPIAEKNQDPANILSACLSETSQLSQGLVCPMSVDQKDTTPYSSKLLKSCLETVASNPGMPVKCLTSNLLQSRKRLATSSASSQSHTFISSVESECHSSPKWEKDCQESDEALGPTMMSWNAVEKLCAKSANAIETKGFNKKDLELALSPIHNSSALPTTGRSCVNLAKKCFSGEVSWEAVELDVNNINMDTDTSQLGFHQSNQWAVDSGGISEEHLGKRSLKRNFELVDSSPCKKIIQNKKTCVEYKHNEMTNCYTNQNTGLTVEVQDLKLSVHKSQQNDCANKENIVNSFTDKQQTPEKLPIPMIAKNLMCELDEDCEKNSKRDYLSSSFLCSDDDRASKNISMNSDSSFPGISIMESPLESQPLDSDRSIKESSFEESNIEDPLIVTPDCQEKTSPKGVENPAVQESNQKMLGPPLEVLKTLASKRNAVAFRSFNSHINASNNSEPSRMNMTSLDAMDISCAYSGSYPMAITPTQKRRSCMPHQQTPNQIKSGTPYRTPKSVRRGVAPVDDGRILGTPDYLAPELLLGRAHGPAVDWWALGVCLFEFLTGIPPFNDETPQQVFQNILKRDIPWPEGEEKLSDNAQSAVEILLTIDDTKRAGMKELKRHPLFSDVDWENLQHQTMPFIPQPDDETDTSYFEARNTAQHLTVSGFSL

RAF1 = RAF1 (Homo sapiens, UniProt P04049); assay: KiNativ, OCI cells live cell; format: cell-based; conditions: 2 h, labeling site Lys2, peptide […]
ACK1 = ACK1 (Homo sapiens, UniProt Q07912); assay: KdELECT binding assay; set-up: purchased Eurofins DiscoverX
PKCd = PKCd (Homo sapiens, UniProt Q05655); assay: KiNativ, OCI cells live cell; format: cell-based; conditions: 2 h, labeling site Other, peptide […]
PIK3CD = PIK3CD (Homo sapiens, UniProt O00329); assay: KiNativ, OCI cells live cell; format: cell-based; conditions: 2 h, labeling site ATP, peptide […]
MAP3K15, MAP3K5, MAP3K6 = assay: KiNativ, OCI cells live cell; format: cell-based, human; conditions: labeling site Lys1, peptide IAIKEIPER
Erk5 = Erk5 (Homo sapiens, UniProt Q13164); assay: KiNativ, OCI cells live cell; format: cell-based; conditions: 2 h, labeling site Lys2, peptide […]
FLT3 D835Y = biological target: T2, FLT3 D835Y (Homo sapiens, UniProt P36888, D835Y); assay: Kinase assay by Reaction Biology; format: biochemical; conditions: enzymatic kinase assay
T2 construct: purchased Eurofins DiscoverX

p70S6K = p70S6K (Homo sapiens, UniProt P23443); assay: KiNativ, OCI cells live cell; format: cell-based; conditions: 2 h, labeling site Lys2, peptide […]
CaMKK2 = CaMKK2 (Homo sapiens, UniProt Q96RR4); assay: KiNativ, OCI cells live cell; format: cell-based; conditions: 2 h, labeling site Lys2, peptide […]
AurA, AurB, AurC = assay: KiNativ, OCI cells live cell; format: cell-based, human; conditions: labeling site ATP Loop, peptide GKFGNVYLAR
SMG1 = SMG1 (Homo sapiens, UniProt Q96Q15); assay: KiNativ, OCI cells live cell; format: cell-based; conditions: labeling site ATP
ROCK1, ROCK2 = assay: KiNativ, OCI cells live cell; format: cell-based, human
MARK3 = MARK3 (Homo sapiens, UniProt P27448); assay: KiNativ, OCI cells live cell; format: cell-based; conditions: 2 h, labeling site Lys1, peptide […]
FRAP = FRAP (Homo sapiens, UniProt P42345); assay: KiNativ, OCI cells live cell; format: cell-based; conditions: 2 h, labeling site ATP, peptide […]
MAPKAPK2, MAPKAPK3 = assay: KiNativ, OCI cells live cell; format: cell-based, human; conditions: labeling site Lys2, peptide DVKPENLLYTSK
PIP4K2C = biological target: T3, PIP4K2C (Homo sapiens, UniProt Q8TBX8); assay: KiNativ, OCI cells live cell; format: cell-based; conditions: 2 h, labeling site ATP
T3 sequence (Q8TBX8 1-421): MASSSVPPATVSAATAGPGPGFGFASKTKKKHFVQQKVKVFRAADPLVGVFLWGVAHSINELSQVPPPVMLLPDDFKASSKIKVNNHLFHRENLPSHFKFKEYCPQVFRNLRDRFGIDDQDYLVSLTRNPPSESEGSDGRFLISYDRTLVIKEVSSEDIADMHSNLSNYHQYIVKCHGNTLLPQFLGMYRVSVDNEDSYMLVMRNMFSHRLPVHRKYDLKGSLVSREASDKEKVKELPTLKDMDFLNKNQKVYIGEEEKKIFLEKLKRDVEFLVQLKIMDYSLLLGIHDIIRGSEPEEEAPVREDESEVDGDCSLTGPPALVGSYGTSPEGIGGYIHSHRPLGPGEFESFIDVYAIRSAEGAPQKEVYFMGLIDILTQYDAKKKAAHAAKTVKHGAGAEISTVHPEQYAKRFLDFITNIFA

Sequence of HPK1 (Q92918 whole entry): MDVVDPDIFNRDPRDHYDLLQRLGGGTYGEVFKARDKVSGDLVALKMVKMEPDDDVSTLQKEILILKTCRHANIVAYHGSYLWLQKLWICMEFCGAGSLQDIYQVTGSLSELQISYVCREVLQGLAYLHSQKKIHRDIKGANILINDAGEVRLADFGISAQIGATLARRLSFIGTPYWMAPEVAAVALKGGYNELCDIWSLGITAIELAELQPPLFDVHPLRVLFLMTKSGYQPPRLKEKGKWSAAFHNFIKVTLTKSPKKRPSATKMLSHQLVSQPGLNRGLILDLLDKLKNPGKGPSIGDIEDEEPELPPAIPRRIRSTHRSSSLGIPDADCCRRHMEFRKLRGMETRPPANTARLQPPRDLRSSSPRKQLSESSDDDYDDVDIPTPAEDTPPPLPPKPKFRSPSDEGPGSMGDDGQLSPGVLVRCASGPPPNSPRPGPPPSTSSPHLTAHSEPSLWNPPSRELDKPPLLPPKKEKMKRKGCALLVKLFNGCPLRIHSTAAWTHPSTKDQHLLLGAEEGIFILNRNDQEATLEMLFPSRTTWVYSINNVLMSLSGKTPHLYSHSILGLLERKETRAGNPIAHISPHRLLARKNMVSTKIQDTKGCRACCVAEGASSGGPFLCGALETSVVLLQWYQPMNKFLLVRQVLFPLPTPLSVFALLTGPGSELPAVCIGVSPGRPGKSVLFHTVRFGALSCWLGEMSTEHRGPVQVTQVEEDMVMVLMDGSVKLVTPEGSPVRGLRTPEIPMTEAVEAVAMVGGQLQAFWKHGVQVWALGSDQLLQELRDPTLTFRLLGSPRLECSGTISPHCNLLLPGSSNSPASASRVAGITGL
Sequence of SMG1 (Q96Q15 whole entry): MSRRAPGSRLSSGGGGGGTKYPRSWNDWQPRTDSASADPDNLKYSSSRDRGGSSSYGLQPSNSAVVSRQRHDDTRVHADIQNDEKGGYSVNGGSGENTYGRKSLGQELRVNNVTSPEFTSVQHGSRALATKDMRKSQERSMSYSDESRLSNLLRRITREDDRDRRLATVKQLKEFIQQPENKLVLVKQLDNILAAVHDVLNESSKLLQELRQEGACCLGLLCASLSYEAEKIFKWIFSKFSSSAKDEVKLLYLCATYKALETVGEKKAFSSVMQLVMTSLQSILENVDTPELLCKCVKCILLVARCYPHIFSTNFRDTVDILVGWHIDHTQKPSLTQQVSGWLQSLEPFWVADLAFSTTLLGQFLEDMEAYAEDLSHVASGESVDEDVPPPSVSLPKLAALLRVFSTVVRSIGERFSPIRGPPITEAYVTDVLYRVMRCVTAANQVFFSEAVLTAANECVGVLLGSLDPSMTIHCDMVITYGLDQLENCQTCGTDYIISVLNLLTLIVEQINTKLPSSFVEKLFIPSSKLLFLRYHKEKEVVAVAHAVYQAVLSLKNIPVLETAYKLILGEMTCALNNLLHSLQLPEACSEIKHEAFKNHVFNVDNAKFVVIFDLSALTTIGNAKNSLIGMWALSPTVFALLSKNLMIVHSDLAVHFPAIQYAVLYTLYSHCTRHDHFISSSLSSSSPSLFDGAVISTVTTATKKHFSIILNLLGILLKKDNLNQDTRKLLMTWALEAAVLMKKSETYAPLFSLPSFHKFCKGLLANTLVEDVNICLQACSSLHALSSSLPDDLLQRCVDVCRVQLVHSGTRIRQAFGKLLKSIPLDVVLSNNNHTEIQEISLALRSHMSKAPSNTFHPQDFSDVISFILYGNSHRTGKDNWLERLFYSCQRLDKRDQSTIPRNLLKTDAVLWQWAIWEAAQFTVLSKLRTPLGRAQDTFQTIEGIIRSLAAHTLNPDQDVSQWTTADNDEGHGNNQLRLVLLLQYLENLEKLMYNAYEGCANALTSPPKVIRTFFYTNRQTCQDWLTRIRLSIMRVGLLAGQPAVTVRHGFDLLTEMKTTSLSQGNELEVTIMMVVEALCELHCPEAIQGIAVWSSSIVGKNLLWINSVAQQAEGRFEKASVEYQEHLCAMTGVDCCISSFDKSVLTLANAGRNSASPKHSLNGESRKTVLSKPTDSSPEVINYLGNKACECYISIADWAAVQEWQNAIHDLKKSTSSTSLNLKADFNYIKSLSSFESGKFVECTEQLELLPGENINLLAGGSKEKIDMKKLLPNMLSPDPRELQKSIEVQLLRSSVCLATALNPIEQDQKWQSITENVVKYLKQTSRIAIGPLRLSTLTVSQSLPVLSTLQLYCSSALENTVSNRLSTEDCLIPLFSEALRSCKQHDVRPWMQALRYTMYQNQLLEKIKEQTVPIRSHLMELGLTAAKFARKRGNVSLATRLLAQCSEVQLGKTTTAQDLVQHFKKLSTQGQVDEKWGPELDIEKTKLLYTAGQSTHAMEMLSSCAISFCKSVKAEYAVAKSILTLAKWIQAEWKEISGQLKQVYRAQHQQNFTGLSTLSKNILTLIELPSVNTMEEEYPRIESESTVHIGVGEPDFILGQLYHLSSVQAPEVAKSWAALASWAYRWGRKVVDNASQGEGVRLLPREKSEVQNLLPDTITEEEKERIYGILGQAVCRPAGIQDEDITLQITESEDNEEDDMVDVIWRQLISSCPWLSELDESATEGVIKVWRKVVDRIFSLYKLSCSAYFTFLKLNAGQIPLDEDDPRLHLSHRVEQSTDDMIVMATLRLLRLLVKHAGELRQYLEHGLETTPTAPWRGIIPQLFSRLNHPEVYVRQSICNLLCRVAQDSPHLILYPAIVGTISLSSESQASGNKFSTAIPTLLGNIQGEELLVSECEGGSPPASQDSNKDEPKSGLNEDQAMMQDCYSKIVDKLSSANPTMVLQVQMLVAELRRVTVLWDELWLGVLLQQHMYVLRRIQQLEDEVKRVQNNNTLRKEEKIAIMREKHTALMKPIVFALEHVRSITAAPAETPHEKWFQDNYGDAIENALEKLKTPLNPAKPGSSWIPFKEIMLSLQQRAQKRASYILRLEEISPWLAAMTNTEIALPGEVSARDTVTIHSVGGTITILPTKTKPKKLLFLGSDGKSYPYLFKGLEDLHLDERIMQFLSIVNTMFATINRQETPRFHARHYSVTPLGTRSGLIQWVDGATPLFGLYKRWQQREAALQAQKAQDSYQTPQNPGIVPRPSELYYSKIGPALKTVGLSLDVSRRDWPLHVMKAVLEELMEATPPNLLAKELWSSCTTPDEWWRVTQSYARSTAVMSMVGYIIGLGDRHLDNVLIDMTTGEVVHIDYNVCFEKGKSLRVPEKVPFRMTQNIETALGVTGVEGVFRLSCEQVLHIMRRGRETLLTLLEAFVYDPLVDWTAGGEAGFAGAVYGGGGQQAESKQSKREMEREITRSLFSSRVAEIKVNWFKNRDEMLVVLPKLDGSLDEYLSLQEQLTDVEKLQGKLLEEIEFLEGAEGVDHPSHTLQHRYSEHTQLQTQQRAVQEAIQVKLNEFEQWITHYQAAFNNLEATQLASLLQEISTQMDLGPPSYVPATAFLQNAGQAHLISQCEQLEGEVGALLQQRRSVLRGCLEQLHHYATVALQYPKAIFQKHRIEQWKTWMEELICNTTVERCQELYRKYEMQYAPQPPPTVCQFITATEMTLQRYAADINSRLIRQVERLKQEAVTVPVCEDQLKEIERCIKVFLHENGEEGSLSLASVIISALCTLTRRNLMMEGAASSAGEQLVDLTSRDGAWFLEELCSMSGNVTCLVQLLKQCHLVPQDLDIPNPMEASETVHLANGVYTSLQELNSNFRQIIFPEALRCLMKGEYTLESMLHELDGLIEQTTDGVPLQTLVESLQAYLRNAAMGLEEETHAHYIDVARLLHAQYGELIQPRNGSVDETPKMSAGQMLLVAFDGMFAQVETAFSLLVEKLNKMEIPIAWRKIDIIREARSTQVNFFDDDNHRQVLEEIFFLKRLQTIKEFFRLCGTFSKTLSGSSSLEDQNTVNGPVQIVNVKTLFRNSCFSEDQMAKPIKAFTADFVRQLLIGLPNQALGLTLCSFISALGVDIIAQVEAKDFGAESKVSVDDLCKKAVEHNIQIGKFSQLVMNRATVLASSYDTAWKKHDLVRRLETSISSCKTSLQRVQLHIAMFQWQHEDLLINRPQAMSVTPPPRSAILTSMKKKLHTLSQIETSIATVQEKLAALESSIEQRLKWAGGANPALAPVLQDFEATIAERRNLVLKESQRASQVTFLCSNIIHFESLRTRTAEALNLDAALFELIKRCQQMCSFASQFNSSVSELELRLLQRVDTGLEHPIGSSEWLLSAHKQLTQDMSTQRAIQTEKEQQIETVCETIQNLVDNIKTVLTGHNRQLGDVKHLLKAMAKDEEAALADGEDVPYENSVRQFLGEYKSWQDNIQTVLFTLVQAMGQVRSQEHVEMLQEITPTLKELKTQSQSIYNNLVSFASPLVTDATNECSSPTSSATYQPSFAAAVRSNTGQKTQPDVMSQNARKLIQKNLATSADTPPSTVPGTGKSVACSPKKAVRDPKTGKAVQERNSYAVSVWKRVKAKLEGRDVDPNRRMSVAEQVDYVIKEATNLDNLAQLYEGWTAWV
Sequence of RAF1 (P04049 whole entry): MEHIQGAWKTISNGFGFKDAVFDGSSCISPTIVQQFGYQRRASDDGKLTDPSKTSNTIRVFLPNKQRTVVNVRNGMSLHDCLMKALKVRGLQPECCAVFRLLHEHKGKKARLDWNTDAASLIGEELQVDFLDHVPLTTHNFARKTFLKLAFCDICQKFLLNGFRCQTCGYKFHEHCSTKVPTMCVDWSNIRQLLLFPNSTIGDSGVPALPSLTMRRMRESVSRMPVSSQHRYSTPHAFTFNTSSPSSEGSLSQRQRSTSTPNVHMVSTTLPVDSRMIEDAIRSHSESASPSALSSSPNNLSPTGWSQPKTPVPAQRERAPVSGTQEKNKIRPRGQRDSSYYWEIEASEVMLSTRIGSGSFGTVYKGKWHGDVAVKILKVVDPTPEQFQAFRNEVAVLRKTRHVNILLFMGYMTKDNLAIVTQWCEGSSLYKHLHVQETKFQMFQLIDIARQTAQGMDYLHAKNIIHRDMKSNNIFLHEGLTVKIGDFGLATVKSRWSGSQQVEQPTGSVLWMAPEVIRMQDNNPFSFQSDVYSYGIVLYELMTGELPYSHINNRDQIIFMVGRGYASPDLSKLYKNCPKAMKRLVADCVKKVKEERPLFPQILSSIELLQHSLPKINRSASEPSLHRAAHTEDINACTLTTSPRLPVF

CN1CCN(Cc2ccc(Nc3ncc(Cl)c(Nc4ccccc4S(=O)(=O)N(C)C)n3)cc2)CC1 [TP-0903]
inhibition at 0.1 µM (CDK6): 74.1%
inhibition at 0.1 µM (TAK1): -11.5%
inhibition at 0.1 µM (HPK1; labeling site Lys1, peptide DKVSGDLVALKMVK): 81%
inhibition at 0.1 µM (HPK1; labeling site Lys2, peptide DIKGANILINDAGEVR): 78.7%
pKd (FLT3 ITD): 8.25
Inhibition (MASTL; labeling site ATP Loop, peptide GAFGKVYLGQK): 6.7%
Inhibition (MASTL; labeling site Lys1, peptide LYAVKVVK): 34.3%
inhibition at 0.1 µM (RAF1): 7%
pKd (ACK1): 8.14
inhibition at 0.1 µM (PKCd): -22.5%
inhibition at 0.1 µM (PIK3CD): -5.6%
Inhibition (MAP3K15, MAP3K5, MAP3K6): -14.4%
inhibition at 0.1 µM (Erk5): 86.8%
pIC50 (FLT3 D835Y): 9.92
inhibition at 0.1 µM (p70S6K): 6.3%
inhibition at 0.1 µM (CaMKK2): 63.2%
Inhibition (AurA, AurB, AurC): 91.0%
Inhibition (SMG1; peptide DTVTIHSVGGTITILPTKTKPK): 12.1%
Inhibition (SMG1; peptide SYPYLFKGLEDLHLDER): -6.4%
Inhibition (ROCK1, ROCK2; labeling site Lys1, peptide VYAMKLLSK): -8.5%
Inhibition (ROCK1, ROCK2; labeling site Lys2, peptide DVKPDNMLLDK): -30.5%
inhibition at 0.1 µM (MARK3): 47%
inhibition at 0.1 µM (FRAP): 7.9%
Inhibition (MAPKAPK2, MAPKAPK3): -42.8%
inhibition at 0.1 µM (PIP4K2C; peptide TLVIKEVSSEDIADMHSNLSNYHQYIVK): -9.8%
inhibition at 0.1 µM (PIP4K2C; peptide VKELPTLKDMDFLNK): -19.6%
